Results reported in patent publication US20050101595A1, “N-containing cycloalkyl-substituted amino-thiazole derivatives and pharmaceutical compositions for inhibiting cell proliferation and methods for their use” (PFIZER INC., priority 2003, published 2005).
Where a name gives a salt, the structure may show the parent alone. Read-outs that look alike come from different tables or passages of the source.

System: HCT-116 cell line
Test: Inhibition of cell growth, tetrazolium salt (MTT) assay
Type: cell-based
Details: for inhibition at 0.25 µM / IC50: Homo sapiens; for inhibition at 0.25 µM: HCT-116, HCT116 cells, read-out: % Inhibition HCT116 @ 250 nM; for inhibition at 0.25 µM / % Inhibition HCT116 @ 250 nM: compound at 250 nM; for % Inhibition HCT116 @ 250 nM: HCT116 cells; for IC50: HCT-116, 120 h, MTT, three to five days, read-out: HCT-116 IC50
Experimental: Inhibition of Cell Growth: Assessment of Cytotoxicity:
Inhibition of cell growth was measured using the tetrazolium salt assay, which is based on the ability of viable cells to reduce 3-(4,5-dimethylthiazol-2-yl)-2,5-[2H]-diphenyltetrazolium bromide (MTT) to formazan (Mossman, Journal of Immunological Methods, vol. 65 (1983), pp. 55-58). The water-insoluble purple formazan product was then detected spectrophotometrically. The HCT-116 cell line was used as a representative cancer cell line and grown in 96-well plates. Cells were plated in McCoy's 5A Medium at a volume of 135 μl/well. Plates were incubated for four hours before addition of inhibitor compounds. Different concentrations of inhibitor compounds were added in 0.5% (v/v) dimethylsulfoxide (15 μLuwell), and cells were incubated at 37° C. (5% CO2) for three to five days. At the end of the incubation, MTT was added to a final concentration of 0.2 mg/mL, and cells were incubated for 4 hours more at 37° C. After centrifugation of the plates and removal of medium, the absorbance of the formazan (solubilized in dimethylsulfoxide) was measured at 540 nm. […] All results were compared to control cells treated only with 0.5% (v/v) dimethylsulfoxide.

Row | Structure (SMILES) | inhibition at 0.25 µM [%] | other results
1 | Nc1nc(NC2CCN(S(=O)(=O)CCN[C@H]3C=CCCC3)CC2)sc1C(=O)c1c(F)cccc1F [Example S172] | 20 | 
2 | CN1CCCN(CCS(=O)(=O)N2CCC(Nc3nc(N)c(C(=O)c4c(F)cccc4F)s3)CC2)CC1 [Example S176] | 17 | 
3 | C#CCNCCS(=O)(=O)N1CCC(Nc2nc(N)c(C(=O)c3c(F)cccc3F)s2)CC1 [Example S119] | 20 | 
4 | Nc1nc(NC2CCN(S(=O)(=O)CCNCCO)CC2)sc1C(=O)c1c(F)cccc1F [Example S115] | 68 | 
5 | Nc1nc(NC2CCN(S(=O)(=O)CCNCCc3ccccn3)CC2)sc1C(=O)c1c(F)cccc1F [Example S85] | 19 | 
6 | CN(CCc1ccccc1)CCS(=O)(=O)N1CCC(Nc2nc(N)c(C(=O)c3c(F)cccc3F)s2)CC1 [Example S29] | 18 | 
7 | COC(=O)CN(C)CCS(=O)(=O)N1CCC(Nc2nc(N)c(C(=O)c3c(F)cccc3F)s2)CC1 [Example S49] | 33 | 
8 | CC(C)N(CCS(=O)(=O)N1CCC(Nc2nc(N)c(C(=O)c3c(F)cccc3F)s2)CC1)Cc1ccccc1 [Example S44] | 55 | 
9 | Nc1nc(NC2CCN(S(=O)(=O)CCNCC(F)(F)F)CC2)sc1C(=O)c1c(F)cccc1F [Example S106] | 98 | 
10 | Nc1nc(NC2CCN(S(=O)(=O)CCNCc3cccnc3)CC2)sc1C(=O)c1c(F)cccc1F [Example S56] |  | % Inhibition HCT116 @ 250 nM (0.25 µM): 73%
11 | CC(C)(CO)NCCS(=O)(=O)N1CCC(Nc2nc(N)c(C(=O)c3c(F)cccc3F)s2)CC1 [Example S80] | 13 | 
12 | Nc1nc(NC2CCN(S(=O)(=O)CCN3CCCCC3CO)CC2)sc1C(=O)c1c(F)cccc1F (stereo not shown) [Example S13] | 24 | 
13 | Nc1nc(NC2CCN(S(=O)(=O)CCN3CCC(O)CC3)CC2)sc1C(=O)c1c(F)cccc1F [Example S24] | 14 | 
14 | CC(C)(NCCS(=O)(=O)N1CCC(Nc2nc(N)c(C(=O)c3c(F)cccc3F)s2)CC1)c1ccccc1 [Example K49, (4-Amino-2-{1-[2-(1-methyl-1-phenyl-ethylamino)-ethanesulfonyl]-piperidin-4-ylamino}-thiazol-5-yl)-(2,6-difluoro-phenyl)-methanone] |  | IC50 (first HCT-116 column (c4)): 180 nM; IC50 (second HCT-116 column (c5)): 500 nM
15 | Nc1nc(NC2CCN(S(=O)(=O)CCNCc3ccc(F)cc3F)CC2)sc1C(=O)c1c(F)cccc1F [Example S124] | 51 | 
16 | Cc1cc(C)cc(CNCCS(=O)(=O)N2CCC(Nc3nc(N)c(C(=O)c4c(F)cccc4F)s3)CC2)c1 [Example S143] | 55 | 
17 | CCN(CCS(=O)(=O)N1CCC(Nc2nc(N)c(C(=O)c3c(F)cccc3F)s2)CC1)CC(C)(C)O [Example S35] | 58 | 
18 | Nc1nc(NC2CCN(S(=O)(=O)CCNCc3ccccn3)CC2)sc1C(=O)c1c(F)cccc1F [Example S86] | 11 | 
19 | Nc1nc(NC2CCN(S(=O)(=O)CCN(Cc3ccccc3)CC3CC3)CC2)sc1C(=O)c1c(F)cccc1F [Example K53, (4-Amino-2-{1-[2-(benzyl-cyclopropylmethyl-amino)-ethanesulfonyl]-piperidin-4-ylamino}-thiazol-5-yl)-(2,6-difluoro-phenyl)-methanone] |  | IC50 (first HCT-116 column (c4)): 230 nM; IC50 (second HCT-116 column (c5)): 560 nM
20 | Nc1nc(NC2CCN(S(=O)(=O)CCNCc3ccc(F)c(F)c3)CC2)sc1C(=O)c1c(F)cccc1F [Example S127] | 60 | 
21 | CCN(CCS(=O)(=O)N1CCC(Nc2nc(N)c(C(=O)c3c(F)cccc3F)s2)CC1)Cc1ccncc1 [Example S45] | 13 | 
22 | CC1CCCC(NCCS(=O)(=O)N2CCC(Nc3nc(N)c(C(=O)c4c(F)cccc4F)s3)CC2)C1 (mixture of isomers) [Example S57] |  | % Inhibition HCT116 @ 250 nM: 73%
23 | CN(CCS(=O)(=O)N1CCC(Nc2nc(N)c(C(=O)c3c(F)cccc3F)s2)CC1)CC1OCCO1 [Example S41] | 18 | 
24 | Nc1nc(NC2CCN(S(=O)(=O)CCN[C@@H](CO)c3ccccc3)CC2)sc1C(=O)c1c(F)cccc1F [Example S79] | 14 | 
25 | CN(C)CC#Cc1ccc(S(=O)(=O)N2CCC(Nc3nc(N)c(C(=O)c4c(F)cccc4F)s3)CC2)cc1 [Example I9, 1-(4-Amino-2-{1-[4-(3-dimethylamino-prop-1-ynyl)-benzenesulfonyl]-piperidin-4-ylamino}-thiazol-5-yl)-1-(2,6-difluoro-phenyl)-methanone D-Glucuronic Acid Salt] |  | IC50 (first HCT-116 column (c4)): 100 nM; IC50 (second HCT-116 column (c5)): 500 nM
26 | CC(C)c1ccc(CNCCS(=O)(=O)N2CCC(Nc3nc(N)c(C(=O)c4c(F)cccc4F)s3)CC2)cc1 [Example S138] | 22 | 
27 | CCC(COC)NCCS(=O)(=O)N1CCC(Nc2nc(N)c(C(=O)c3c(F)cccc3F)s2)CC1 (stereo not shown) [Example S146] | 42 | 
28 | CCCCN(CCC#N)CCS(=O)(=O)N1CCC(Nc2nc(N)c(C(=O)c3c(F)cccc3F)s2)CC1 [Example S37] | 24 | 

Row | Structure (SMILES) | inhibition at 0.25 µM [%] | other results
29 | Nc1nc(NC2CCN(S(=O)(=O)CCNC3c4ccccc4CC3O)CC2)sc1C(=O)c1c(F)cccc1F (stereo not shown) [Example S150] | 33 | 
30 | CC(=O)N1CCN(CCS(=O)(=O)N2CCC(Nc3nc(N)c(C(=O)c4c(F)cccc4F)s3)CC2)CC1 [Example S52] | 18 | 
31 | CN(CCS(=O)(=O)N1CCC(Nc2nc(N)c(C(=O)c3c(F)cccc3F)s2)CC1)Cc1cccnc1 [Example S34] | 21 | 
32 | Nc1nc(NC2CCN(S(=O)(=O)CCN3CCSC3)CC2)sc1C(=O)c1c(F)cccc1F [Example S22] | 18 | 
33 | Nc1nc(NC2CCN(S(=O)(=O)CCN3CCCC3)CC2)sc1C(=O)c1c(F)cccc1F [Example S21] | 35 | 
34 | CN(C)C(=O)[C@H]1CCCN1CCS(=O)(=O)N1CCC(Nc2nc(N)c(C(=O)c3c(F)cccc3F)s2)CC1 [Example S66] | 14 | 
35 | Nc1nc(NC2CCN(S(=O)(=O)CCNCCc3ccccc3)CC2)sc1C(=O)c1c(F)cccc1F [Example S116] | 60 | 
36 | Nc1nc(NC2CCN(S(=O)(=O)CCNCC3CCCCC3)CC2)sc1C(=O)c1c(F)cccc1F [Example S67] | 40 | 
37 | CN(CC#N)CCS(=O)(=O)N1CCC(Nc2nc(N)c(C(=O)c3c(F)cccc3F)s2)CC1 [Example S53] | 17 | 
38 | Nc1nc(NC2CCN(S(=O)(=O)CCNCCc3ccccc3F)CC2)sc1C(=O)c1c(F)cccc1F [Example S159] | 44 | 
39 | Nc1nc(NC2CCN(S(=O)(=O)CCNCc3ccccc3F)CC2)sc1C(=O)c1c(F)cccc1F [Example S95] | 51 | 
40 | CCCN(CCS(=O)(=O)N1CCC(Nc2nc(N)c(C(=O)c3c(F)cccc3F)s2)CC1)CC1CC1 [Example S1] | 36 | 
41 | Cc1cccc(CNCCS(=O)(=O)N2CCC(Nc3nc(N)c(C(=O)c4c(F)cccc4F)s3)CC2)c1 [Example S101] | 80 | 
42 | CC(O)CN(CCS(=O)(=O)N1CCC(Nc2nc(N)c(C(=O)c3c(F)cccc3F)s2)CC1)CC(C)O (stereo not shown) [Example S11] | 13 | 
43 | Nc1nc(NC2CCN(S(=O)(=O)CCNC3CCCc4ccccc43)CC2)sc1C(=O)c1c(F)cccc1F (stereo not shown) [Example S68] | 21 | 
44 | C=C(C)CN(C)CCS(=O)(=O)N1CCC(Nc2nc(N)c(C(=O)c3c(F)cccc3F)s2)CC1 [Example S51] | 83 | 
45 | CC(CNCCS(=O)(=O)N1CCC(Nc2nc(N)c(C(=O)c3c(F)cccc3F)s2)CC1)N(C)C (stereo not shown) [Example S131] | 17 | 
46 | Nc1nc(NC2CCN(S(=O)(=O)CCNCc3ccc(F)cc3)CC2)sc1C(=O)c1c(F)cccc1F [Example S102] | 57 | 
47 | COC[C@@H]1CCCN1CCS(=O)(=O)N1CCC(Nc2nc(N)c(C(=O)c3c(F)cccc3F)s2)CC1 [Example S42] | 12 | 
48 | CC(C)(NCCS(=O)(=O)N1CCC(Nc2nc(N)c(C(=O)c3c(F)cccc3F)s2)CC1)c1ccccc1 [Example S173] | 35 | 
49 | Nc1nc(NC2CCN(S(=O)(=O)CCNCc3ccccc3)CC2)sc1C(=O)c1c(F)cccc1F [Example S94] | 64 | 
50 | Cc1cnc(CNCCS(=O)(=O)N2CCC(Nc3nc(N)c(C(=O)c4c(F)cccc4F)s3)CC2)cn1 [Example S171] | 18 | 
51 | CC1CCCN1CCS(=O)(=O)N1CCC(Nc2nc(N)c(C(=O)c3c(F)cccc3F)s2)CC1 (racemic) [Example S40] |  | % Inhibition HCT116 @ 250 nM: 93%
52 | CCC(CO)NCCS(=O)(=O)N1CCC(Nc2nc(N)c(C(=O)c3c(F)cccc3F)s2)CC1 (stereo not shown) [Example S92] | 8 | 
53 | COc1ccccc1CNCCS(=O)(=O)N1CCC(Nc2nc(N)c(C(=O)c3c(F)cccc3F)s2)CC1 [Example S97] | 25 | 
54 | Nc1nc(NC2CCN(S(=O)(=O)CCNCc3ccccc3Cl)CC2)sc1C(=O)c1c(F)cccc1F [Example S96] | 48 | 
55 | Nc1nc(NC2CCN(S(=O)(=O)CCNCc3ccc4c(c3)CCO4)CC2)sc1C(=O)c1c(F)cccc1F [Example S169] | 17 | 
